# In PMC6895180 (Nature Communications, 2019):
# Several values for one entry are separate records, joined by “and”; a condition that tells them apart may be missing. Identical values can stand only once. Like-named read-outs stand apart in the source and are kept apart here. Marks after values point to notes of the source that are not given here.
# Columns and labels:
# P1 transporter = format: cell-based, Trypanosoma brucei; settings: mean ± SEM, n = 3
# Protocol: Non-specific association of radiolabel with the cell pellet was determined using an identical incubation in the presence of saturating (1 mM) unlabelled adenosine.
# T. brucei ADKIN = target: T1, T. brucei ADKIN (Trypanosoma brucei brucei, UniProt Q584S6); experiment: ADKIN assay (phosphorylation by purified recombinant enzyme, HPLC); format: biochemical
# T1 sequence (Q584S6 1-345): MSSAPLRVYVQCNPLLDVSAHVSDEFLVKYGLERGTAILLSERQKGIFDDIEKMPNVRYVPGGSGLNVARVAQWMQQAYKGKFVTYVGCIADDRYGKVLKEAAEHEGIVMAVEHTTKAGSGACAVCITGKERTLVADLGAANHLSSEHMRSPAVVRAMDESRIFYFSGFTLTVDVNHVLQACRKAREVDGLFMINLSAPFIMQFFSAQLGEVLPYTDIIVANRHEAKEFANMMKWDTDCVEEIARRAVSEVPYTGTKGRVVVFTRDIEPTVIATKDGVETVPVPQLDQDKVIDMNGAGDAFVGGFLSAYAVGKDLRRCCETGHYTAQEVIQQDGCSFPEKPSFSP
# Protocol: The T. brucei ADKIN enzyme was diluted in a buffer containing 0.05% (v/v) Tween-20, 50 mM KCl, 0.1 mM dithiothreitol, and 50 mM Tris-HCl, pH 7.5 (dilution buffer), prior to use in the assay. The final assay mixture contained 12.5 ng T. brucei ADKIN, a range between 50 and 1000 µM of nucleoside 9 (or 1000 µM deoxyadenosine in the control reaction), 100 mM KCl, 10 mM MgCl2, 0.5 mM ATP, 5 mM potassium phosphate and 50 mM Tris-HCl, pH 7.5. The assay was incubated at 37 °C for 30 min, and subsequently heated for 2 min at 100 °C to inactivate the enzyme, diluted with 2 volumes of water, centrifuged through a Nanosep 3k Omega filter and mixed 1:1:2 with water and mobile phase. The HPLC analysis was performed on a 2.1 × 150 mm ACE Excel C18 column using a mobile phase composition 4A:76B:20C (see nucleotide pool analysis, Supplementary Information for details). Using these conditions, consecutive samples could be loaded (Supplementary Fig. 12). After 4–5 samples, the column was washed with high percent A (80A:20C) to remove bound ADP and ATP before re-equilibrating the column to original conditions.
# [1] = Metabolic stability, mouse liver microsomes (phase I and II)
# Protocol: (§1) Mouse, rat, and pooled human liver microsomes were purchased from a commercial source (Corning) and stored at -80 °C. NADPH generating system solutions A and B and UGT reaction mix solutions A and B (Corning) were kept at -20°C. The test compound and the reference compounds diclofenac (MW […]
# (§2) microsomal stability assay was carried out based on the BD Biosciences Guidelines for Use (TF000017 Rev1.0) with minor adaptations. Metabolic stability of the compounds was studied through the CYP450 superfamily (phase I metabolism) by fortification with reduced nicotinamide adenine dinucleotide phosphate (NADPH) and through uridine glucuronosyl-transferase (UGT) enzymes (phase II metabolism) by fortification with uridine diphosphate glucuronic acid (UDPGA). For the CYP450 and other NADPH dependent enzymes, both compounds were incubated at 5 µM together with 0.5 mg mL-1 liver microsomes in potassium phosphate buffer in a reaction started by the addition of 1 mM NADPH […]
# (§3) At these time points, 20 µL was withdrawn from the reaction mixture and 80 µL cold acetonitrile (ACN) containing the internal standard tolbutamide, was added to inactivate the enzymes and precipitate the proteins. The mixture was vortexed for 30 s and centrifuged at 4 °C for 5 min at 15,000 rpm. The supernatant was stored at -80°C until analysis. For the UGT enzymes, both compounds were incubated at 5 µM together with 0.5 mg mL-1 liver microsomes in a reaction started by the addition of 2 mM UDPGA cofactor. The corresponding loss of parent compound was determined using liquid chromatography (UPLC) (Waters AquityTM) coupled with tandem quadrupole mass spectrometry (MS²) (Waters XevoTM), equipped with an electrospray ionization (ESI) interface and operated in multiple reaction monitoring (MRM) mode. […]
# [2] = Metabolic stability, rat liver microsomes (phase I and II)
# Protocol: as §1, §2, §3
# [3] = Metabolic stability, pooled human liver microsomes (phase I and II)
# Protocol: as §1, §2, §3
# T. brucei Squib 427 = experiment: microbe, parasite or virus in culture; format: cell-based, Trypanosoma brucei brucei
# Protocol: (§4) Drug susceptibility tests with Lister 427WT, TbAT1-KO[48], B48[26] and ISMR1[27] were performed using an assay based on the viability indicator dye resazurin in 96-well plates, each well containing 2 × 10^4 cells. The plates were incubated for 48 h with a doubling dilution series of the test compounds in HMI-9/fetal bovine serum at 37 °C/5% CO2 (23 dilutions starting at 100 µM, except for the pentamidine control (50 µM)), after which resazurin (20 µL of 125 µg mL^−1 resazurin sodium salt solution was added to each well (containing 200 µL of cells and test compound)) was added to each well and the plates incubated for another 24 h. Fluorescence was determined using a FLUOstar Optima (BMG Labtech, Durham, NC) and the results fitted to a sigmoid curve with variable slope using Prism 5.0 or Prism 7.04 (GraphPad, San Diego, CA).
# (§5) Susceptibility assays with T. brucei Squib 427[49] or T. b. rhodesiense STIB-900[50] were performed under similar conditions as above, but using 10 concentrations of a 4-fold compound dilution series starting at 64 µM. Trypanosoma brucei Squib 427 was seeded at 1.5 × 10^4 parasites/well and T. b. rhodesiense at 4 × 10^3 parasites per well, followed by the addition of resazurin (final concentration of 10 µg mL^−1) after 24 h (T. brucei) or 6 h (T. b. rhodesiense).
# [4] = test system: T. b. rhodesiense STIB-900; experiment: microbe, parasite or virus in culture; format: cell-based, Trypanosoma brucei rhodesiense; settings: Trypanosoma brucei, RHODESIENSE
# Protocol: as §4, §5
# [5] = Cytotoxicity on MRC-5 fibroblasts (resazurin); format: cell-based, human; settings: human, MRC-5SV2 human embryonic lung fibroblasts
# Protocol: Cytotoxicity assays were performed on MRC-5SV2 (Sigma-Aldrich/ECACC, catalogue number 84100401) human embryonic lung fibroblasts, which were cultured in minimum essential medium with Earle’s salt medium, supplemented with L-glutamine, NaHCO3 and 5% inactivated foetal calf serum. All cultures and assays were conducted at 37 °C with 5% CO2. Ten microliters of the aqueous compound dilutions were added to 190 µL of MRC-5SV2 (3 × 10^4 cells mL^−1). Cell growth was compared to untreated control wells (100% cell growth) and medium control wells (0% cell growth). After a 3-day incubation, cell viability was assessed fluorimetrically after the addition of 50 μL resazurin per well (final concentration of 10 µg mL^−1). After 4 h at 37 °C, fluorescence was measured (λex 550 nm, λem 590 nm). The results were expressed as percentage reduction in cell growth/viability compared to control wells and an EC50 was determined.
# [6] = test system: T. b. brucei Lister 427WT; experiment: Drug susceptibility test (resazurin), Lister 427WT; format: cell-based, Trypanosoma brucei brucei
# Protocol: as §4
# [7] = test system: ISMR1: isometamidium-resistant T. brucei cell line; experiment: microbe, parasite or virus in culture; format: cell-based, Trypanosoma brucei brucei
# Protocol: as §4
# [8] = test system: TbAT1-KO: T. brucei cell line lacking the TbAT1(P2) transporter gene; experiment: microbe, parasite or virus in culture; format: cell-based, Trypanosoma brucei brucei
# Protocol: as §4
# [9] = test system: B48: pentamidine, diminazene and melaminophenyl arsenical resistant T. brucei line; experiment: microbe, parasite or virus in culture; format: cell-based, Trypanosoma brucei brucei
# [10] = resistance factor vs Lister 427WT
smiles,measurement,setting,value
"Nc1ncnc2c1ncn2[C@@H]1O[C@H](CO)[C@@H](O)[C@H]1O [Adenosine, reference compound]",Km,P1 transporter,120 ± 20 nM
"Nc1ncnc2c1ncn2[C@H]1C[C@H](O)[C@@H](CO)O1 [dAdo, 2′-deoxyadenosine, reference compound]",product concentration (Conc.9-MP),"T. brucei ADKIN; TbAK control reaction, [dAdo] 1000 µM",34.4568 and 29.4118 and 31.8858
same,Act (U/mg),"T. brucei ADKIN; TbAK, substrate 1000 µM",4.594 U/mg and 3.922 U/mg and 4.251 U/mg
"OC(Cn1cncn1)(Cn1cncn1)c1ccc(F)cc1F [Fluco, fluconazole, reference compound]",% parent compound remaining,"[1]; CYP - NADPH, 15 min",111±12%
same,% parent compound remaining,"[1]; CYP - NADPH, 30 min",93±19%
same,% parent compound remaining,"[1]; CYP - NADPH, 60 min",100±12%
same,% parent compound remaining,"[1]; UGT Enzymes, 15 min",99±19%
same,% parent compound remaining,"[1]; UGT Enzymes, 30 min",104±3%
same,% parent compound remaining,"[1]; UGT Enzymes, 60 min",100±6%
same,% parent compound remaining,"[2]; CYP - NADPH, 15 min",110%
same,% parent compound remaining,"[2]; CYP - NADPH, 30 min",104%
same,% parent compound remaining,"[2]; CYP - NADPH, 60 min",96%
same,% parent compound remaining,"[2]; UGT Enzymes, 15 min",111%
same,% parent compound remaining,"[2]; UGT Enzymes, 30 min",105%
same,% parent compound remaining,"[2]; UGT Enzymes, 60 min",112%
same,% parent compound remaining,"[3]; CYP - NADPH, 15 min",110%
same,% parent compound remaining,"[3]; CYP - NADPH, 30 min",80%
same,% parent compound remaining,"[3]; CYP - NADPH, 60 min",103%
same,% parent compound remaining,"[3]; UGT Enzymes, 15 min",103%
same,% parent compound remaining,"[3]; UGT Enzymes, 30 min",116%
same,% parent compound remaining,"[3]; UGT Enzymes, 60 min",106%
"O=C(O)Cc1ccccc1Nc1c(Cl)cccc1Cl [Diclo, diclofenac, reference compound]",% parent compound remaining,"[1]; CYP - NADPH, 15 min",83±14%
same,% parent compound remaining,"[1]; CYP - NADPH, 30 min",67±5.7%
same,% parent compound remaining,"[1]; CYP - NADPH, 60 min",52±0.3%
same,% parent compound remaining,"[1]; UGT Enzymes, 15 min",42±21%
same,% parent compound remaining,"[1]; UGT Enzymes, 30 min",46±10%
same,% parent compound remaining,"[1]; UGT Enzymes, 60 min",34±9%
same,% parent compound remaining,"[2]; CYP - NADPH, 15 min",59±9%
same,% parent compound remaining,"[2]; CYP - NADPH, 30 min",39±2.6%
same,% parent compound remaining,"[2]; CYP - NADPH, 60 min",10±2.9%
same,% parent compound remaining,"[2]; UGT Enzymes, 15 min",28±4.5%
same,% parent compound remaining,"[2]; UGT Enzymes, 30 min",14±1.5%
same,% parent compound remaining,"[2]; UGT Enzymes, 60 min",11±0.9%
same,% parent compound remaining,"[3]; CYP - NADPH, 15 min",35±0.4%
same,% parent compound remaining,"[3]; CYP - NADPH, 30 min",14±0.8%
same,% parent compound remaining,"[3]; CYP - NADPH, 60 min",2±0.4%
same,% parent compound remaining,"[3]; UGT Enzymes, 15 min",17±1.1%
same,% parent compound remaining,"[3]; UGT Enzymes, 30 min",14±0.7%
same,% parent compound remaining,"[3]; UGT Enzymes, 60 min",10±0.1%
"Nc1ncnc2c1ccn2[C@H]1C[C@H](O)[C@@H](CO)O1 [Compound 11, 2′-Deoxy-TUB]",EC50,"T. brucei Squib 427; Trypanosoma brucei, Alamar blue cell viability assay, mean and SEM, read-out: T. b. brucei EC50",48 ± 1 µM
same,EC50,"T. brucei Squib 427; Trypanosoma brucei, source data, read-out: T. brucei brucei EC50, Average",48.5 µM
same,EC50,"T. brucei Squib 427; Trypanosoma brucei, source data, read-out: T. brucei brucei EC50, single measurements",49.9 µM
same,SI (MRC/T.b. brucei),T. brucei Squib 427; selectivity index,1.3
same,EC50,"T. brucei Squib 427; source data, read-out: T. brucei brucei EC50, single measurements",47.2 µM
same,EC50,"[4]; Alamar blue cell viability assay, mean and SEM, read-out: T. b. rhodesiense EC50",> 64 µM
same,EC50,"[4]; source data, read-out: T. brucei rhodesiense EC50, single measurements",> 64 µM
same,EC50 at 3 day,"[5]; cytotoxicity in human MRC-5 fibroblasts, mean and SEM, read-out: MRC-5 EC50",> 64 µM
same,EC50 at 3 day,"[5]; source data, read-out: MRC-5 EC50, single measurements",> 64 µM
same,EC50,"[6]; Trypanosoma brucei, mean and SEM, n = 3, read-out: Lister 427 EC50",96.4 ± 13.8 µM
same,EC50,"[6]; Trypanosoma brucei, source data, read-out: s427 EC50, single determinations",82.6 µM
same,EC50,"[6]; source data, read-out: s427 EC50, single determinations",97.4 µM
same,EC50,"[7]; Trypanosoma brucei, mean and SEM, n = 3, read-out: ISMR1 EC50",77.8 ± 1.7 µM
same,EC50,"[7]; Trypanosoma brucei, source data, read-out: ISMR1 EC50, single determinations",77.3 µM
same,RF (ISMR1),[7]; [10],0.81
same,EC50,"[7]; source data, read-out: ISMR1 EC50, single determinations",81 µM and 75.1 µM
same,EC50,"[8]; Trypanosoma brucei, read-out: TbAT1-KO EC50, mean and SEM, n = 3",43.7 ± 2.2 µM
same,EC50,"[8]; Trypanosoma brucei, read-out: TbAT1-KO EC50, single determinations, source data",41.5 µM
same,EC50,"[8]; read-out: TbAT1-KO EC50, single determinations, source data",45.9 µM and 46.9 µM
same,RF (TbAT1-KO),[8]; resistance factor: ratio of EC50 of resistant and Lister 427WT,0.45**
same,EC50,"[9]; Trypanosoma brucei, mean and SEM, n = 3, read-out: B48 EC50",41.8 ± 1.4 µM
same,EC50,"[9]; Trypanosoma brucei, source data, read-out: B48 EC50, single determinations",40.3 µM
same,RF (B48),[9]; [10],0.43**
same,EC50,"[9]; source data, read-out: B48 EC50, single determinations",43.2 µM and 40.8 µM
